What follows are compounds tested on HIV-1 single-round infectious reporter virus (assay: Single-round infectious HIV-1 reporter virus (luciferase) infection of HeLa CD4 cells). Conditions: Human immunodeficiency virus 1, HeLa, 72 h, read-out: EC50 Group from Table 1.
Assay type: cell-based
Procedure: • Virus production—Human embryonic Kidney cell line, 293T, was propagated in Dulbecco's Modified Eagle Medium (Invitrogen, Carlsbad, Calif.) containing 10% fetal Bovine serum (FBS, Sigma, St. Louis, Mo.). • Virus infection-Human epithelial cell line, HeLa, expressing the HIV-1 receptor CD4 was propagated in Dulbecco's Modified Eagle Medium (Invitrogen, Carlsbad, Calif.) containing 10% fetal Bovine serum (FBS, Sigma, St. Louis, Mo.) and supplemented with 0.2 mg/mL Geneticin (Invitrogen, Carlsbad, Calif.). • Virus-Single-round infectious reporter virus was produced by co-transfecting human embryonic Kidney 293 cells with an HIV-1 envelope DNA expression vector and a proviral cDNA containing an envelope deletion mutation and the luciferase reporter gene inserted in place of HIV-1 nef sequences (Chen et al, Ref. 41). Transfections were performed using lipofectAMINE PLUS reagent as described by the manufacturer (Invitrogen, Carlsbad, Calif.). Experiment: • HeLa CD4 cells were plated in 96 well plates at a cell density of 1×10^4 cells per well in 100 μl Dulbecco's Modified Eagle Medium containing 10% fetal Bovine serum and incubated overnight. • Compound was added in a 2 μl dimethylsulfoxide solution, so that the final assay concentration would be ≦10 μM. • 100 μl of single-round infectious reporter virus in Dulbecco's Modified Eagle Medium was then added to the plated cells and compound at an approximate multiplicity of infection (MOI) of 0.01, resulting in a final volume of 200 μl per well. • Virally-infected cells were incubated at 37 degrees Celsius, in a CO2 incubator, and harvested 72 h after infection. • Viral infection was monitored by measuring luciferase expression from viral DNA in the infected cells using a luciferase reporter gene assay kit, as described by the manufacturer (Roche Molecular Biochemicals, Indianapolis, Ind.). Infected cell supernatants were removed and 50 μl of lysis buffer was added per well. After 15 minutes, 50 μl of freshly-reconstituted luciferase assay reagent was added per well. Luciferase activity was then quantified by measuring luminescence using a Wallac microbeta scintillation counter. • The percent inhibition for each compound was calculated by quantifying the level of luciferase expression in cells infected in the presence of each compound as a percentage of that observed for cells infected in the absence of compound and subtracting such a determined value from 100. • An EC50 provides a method for comparing the antiviral potency of the compounds of this disclosure. The effective concentration for fifty percent inhibition (EC50) was calculated with the Microsoft Excel Xlfit curve fitting software. For each compound, curves were generated from percent inhibition calculated at 10 different concentrations by using a four paramenter logistic model (model 205). Table 1 is the key for the data in Table 2.
`CC(Oc1cccc2ncccc12)C(=O)N1CCC(=C(C#N)c2ccccc2)CC1` (centres unmarked) showed an EC50 of less than 1000 nM. With `CC(Oc1cccc2ncccc12)C(=O)N1CCC(=C(C#N)c2ccccc2)CC1C` (centres unmarked) the EC50 was less than 1000 nM. Work on `CC(Oc1cccc2ncccc12)C(=O)N1CCC(=C(c2ccccc2)c2ccccc2)CC1` (centres unmarked) yielded an EC50 greater than 1000 nM. `CC(Oc1cccc2ncccc12)C(=O)N1CCC(=C(c2ccccc2)c2cccnc2)CC1` (centres unmarked) showed an EC50 greater than 1000 nM. For `Cc1nnc(C(=C2CCN(C(=O)C(C)Oc3cccc4ncccc34)CC2)c2ccccc2)o1` (centres unmarked), the EC50 was greater than 1000 nM. Compound `COC(=O)c1ccc(OC(C)C(=O)N2CCC(=C(C#N)c3ccccc3)CC2)c(OC)c1` (centres unmarked) has an EC50 of less than 1000 nM. Work on `COC(=O)c1ccc(OC(C)C(=O)N2CCC(=C(C#N)c3ccccc3)CC2C)c(OC)c1` (centres unmarked) yielded an EC50 of less than 1000 nM. `COC(=O)c1ccc(OC(C)C(=O)N2CCC(=C(c3ccccc3)c3ccccc3)CC2)c(OC)c1` (centres unmarked) showed an EC50 of less than 1000 nM. `COC(=O)c1ccc(OC(C)C(=O)N2CCC(=C(c3ccccc3)c3cccnc3)CC2)c(OC)c1` (centres unmarked) was tested, and the EC50 was greater than 1000 nM. `COC(=O)c1ccc(OC(C)C(=O)N2CCC(=C(c3ccccc3)c3nnc(C)o3)CC2)c(OC)c1` (centres unmarked) was tested, and the EC50 was less than 1000 nM. With `CC(Oc1cccc2cccnc12)C(=O)N1CCC(=C(C#N)c2ccccc2)CC1` (centres unmarked) the EC50 was less than 1000 nM.

— US7745463B2, “Alkene piperidine derivatives as antiviral agents” (priority 2006, dated 2010)
